From PubChem BioAssay (NCI)
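These data come from cells grown in 96-well plates and exposed to compound for 48 hours at five concentrations. GI50 = concentration required for 50% inhibition of growth. TGI denotes the concentration required for complete inhibition of growth.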

Experiments:
Experiment in all cases: NCI-60 cell line screen, 48 h
HCT-15 colon = system: HCT-15 colon
IGROV1 ovarian = system: IGROV1 ovarian
OVCAR-3 ovarian = system: OVCAR-3 ovarian
OVCAR-4 ovarian = system: OVCAR-4 ovarian
OVCAR-5 ovarian = system: OVCAR-5 ovarian
SK-MEL-2 melanoma = system: SK-MEL-2 melanoma
SN12C renal = system: SN12C renal
UO-31 renal = system: UO-31 renal
NCI-H226 lung = system: NCI-H226 lung

SMILES | TGI (HCT-15 colon) [µM] | TGI (IGROV1 ovarian) [µM] | TGI (OVCAR-3 ovarian) [µM] | TGI (OVCAR-4 ovarian) [µM] | TGI (OVCAR-5 ovarian) [µM] | TGI (SK-MEL-2 melanoma) [µM] | TGI (SN12C renal) [µM] | TGI (UO-31 renal) [µM] | TGI (NCI-H226 lung) [µM] | GI50 (NCI-H226 lung) [nM] | GI50 (OVCAR-3 ovarian) [µM] | GI50 (OVCAR-5 ovarian) [nM] | GI50 (SK-MEL-2 melanoma) [nM] | GI50 (SN12C renal) [nM] | GI50 (UO-31 renal) [nM] | GI50 (HCT-15 colon) [µM] | GI50 (OVCAR-4 ovarian) [µM] | GI50 (IGROV1 ovarian) [µM]
CCOC(=O)C1C(=S)NC(=O)C1C#N (stereo not given) | > 100 | > 100 | > 100 | > 100 | > 100 | > 100 | > 100 | > 100 |  |  |  |  |  |  |  |  |  | 
O=C1CC(c2c[nH]c3ccccc23)C(=O)N1 (stereo not given) | > 100 | > 100 | > 100 | > 100 | > 100 | > 100 |  | > 100 | > 100 |  |  |  |  |  |  |  |  | 
Clc1ccc(Nc2nc3ccccc3nc2-c2cccs2)cc1Cl | > 100 |  | > 100 |  | > 100 | > 100 | > 100 | > 100 | > 100 |  |  |  |  |  |  |  |  | 
C1CCC([PH+](C2CCCCC2)C2CCCCC2[PH+](C2CCCCC2)C2CCCCC2)CC1.[Au].[CH-]1CCCCC1CC1CCCC[N-]1 (stereo not given) |  |  | 1.2 |  | 2.01 | 1.38 | 2.93 | 2.61 | 2.7 | 561 | 0.318 | 452 | 398 | 285 | 1300 |  |  | 
COc1cc2c3c(n(C)c(=O)c2cc1OC)-c1cc2c(cc1/C3=C\CCCCN1C(=O)c3ccccc3C1=O)OCO2 | 50.5 |  | > 100 | > 100 | > 100 |  |  |  | 31.4 | 12800 | 38.1 | 74000 |  |  |  | 14.8 | 26 | 
O=C1OC(Cc2ccccc2)(N2CCCC2=O)C1c1ccccc1 (stereo not given) |  |  | > 100 | > 100 | > 100 | > 100 | > 100 | > 100 | > 100 |  |  |  |  |  |  |  |  | 
O=C(NC1CCCCC1)NS(=O)(=O)c1ccc2c(c1)CCC2 | > 100 | > 100 | > 100 |  | > 100 | > 100 | > 100 | > 100 | > 100 |  |  |  |  |  |  |  |  | 
CCC(=O)C12OC3OC(C)(C)OC3C1OC(C)(C)O2 (stereo not given) |  | > 100 | > 100 | > 100 | > 100 | > 100 | > 100 | > 100 | > 100 |  |  |  |  |  |  |  |  | 
N#CC(C#N)=C1NC(=O)CC(=O)N1 | > 100 | > 100 | > 100 | > 100 | > 100 |  | > 100 | > 100 | > 100 |  |  |  |  |  |  |  |  | 
CCCP1(=O)C=C(C)C(=C(Cl)Cl)C(C)=C1 (stereo not given) | > 100 | > 100 | > 100 | > 100 | > 100 | 41 | 66.7 | > 100 |  |  |  |  |  |  |  |  |  | 
N#CC(=C1C=CC(=NO)C=C1)c1ccc(Cl)cc1 | 49.6 | 56.1 | 13.2 | 60.4 | 28.8 | 20.2 | 58.7 | 31.7 |  |  |  |  |  |  |  |  |  | 
COc1ccc(-c2cc(Cc3cccs3)c(=O)[nH]n2)cc1 | > 100 | > 100 | > 100 |  | > 100 | > 100 | > 100 | > 100 | > 100 |  |  |  |  |  |  |  |  | 
COc1cc(C(=O)C/C(CCC(=O)Nc2ccccc2[N+](=O)[O-])=N\NC(N)=O)ccc1O | > 100 | > 100 | > 100 |  | > 100 | > 100 | > 100 | > 100 | > 100 |  |  |  |  |  |  |  |  | 
COc1ccc(C=O)c([N+](=O)[O-])c1 | > 100 | > 100 | > 100 | > 100 |  | > 100 | > 100 | > 100 | > 100 |  |  |  |  |  |  |  |  | 
CN(N=O)C(=O)ON1C(=O)CCC1=O | > 100 | > 100 | > 100 | > 100 | > 100 | > 100 |  | > 100 | > 100 |  |  |  |  |  |  |  |  | 
C#C[C@]1(O)CCCC2=CC(=O)CC[C@@]21C | > 100 | > 100 | > 100 |  | > 100 | > 100 | > 100 | > 100 | > 100 |  |  |  |  |  |  |  |  | 
O=C1C(=C([O-])c2ccccc2)C(=O)c2ccccc21.O=C1C(=C([O-])c2ccccc2)C(=O)c2ccccc21.[Fe+2] |  | > 100 | > 100 | > 100 | > 100 |  | > 100 | > 100 | > 100 | > 100000 | 89.5 | > 100000 |  | > 100000 | 44800 |  | > 100 | > 100
CCN(CC)CC1c2ccccc2C(CNc2ccccc2)N1C (stereo not given) | > 100 | > 100 | > 100 | > 100 | > 100 | > 100 | > 100 | > 100 |  |  |  |  |  |  |  |  |  | 
C/C(=C\c1ccc2ccccc2c1)[N+](=O)[O-] | 3.59 |  | 3.37 | 3.01 | 3.63 | 3.35 | 3.23 | 2.9 | 6.97 | 2410 | 1.91 | 1870 | 1850 | 1740 | 1390 | 1.56 | 1.65 | 
